According to ChEMBL document CHEMBL2331373, “Synthesis and antitubercular activity of amino alcohol fused spirochromone conjugates” (2013):
Converted amounts (≈) assume the structure as drawn.

Tested on: Mycobacterium tuberculosis
Test: Antimycobacterial activity against Mycobacterium tuberculosis H37Rv ATCC 27294 by agar dilution method
Type: functional

Row | Compound | MIC [mg/L]
1 | COc1ccc(NCC(O)COc2ccc3c(c2)OC2(CCCC2)CC3=O)cc1 (stereo not drawn) | 25 (≈ 62.9 µM)
2 | CC(C)c1ccc(NCC(O)COc2ccc3c(c2)OC2(CCN(C(=O)OC(C)(C)C)CC2)CC3=O)cc1 (stereo not drawn) | 12.5 (≈ 23.8 µM)
3 | Cc1ccccc1NCC(O)COc1ccc2c(c1)OC1(CCCC1)CC2=O (stereo not drawn) | 12.5 (≈ 32.8 µM)
4 | O=C1CC2(CCCC2)Oc2cc(OCC(O)CNc3ccccc3Cl)ccc21 (stereo not drawn) | 6.25 (≈ 15.6 µM)
5 | CC(C)c1ccccc1NCC(O)COc1ccc2c(c1)OC1(CCCC1)CC2=O (stereo not drawn) | 6.25 (≈ 15.3 µM)
6 | COc1ccccc1NCC(O)COc1ccc2c(c1)OC1(CCCC1)CC2=O (stereo not drawn) | 12.5 (≈ 31.4 µM)
7 | O=C1CC2(CCCC2)Oc2cc(OCC(O)CNc3cccc(F)c3)ccc21 (stereo not drawn) | 3.13 (≈ 8.12 µM)
8 | CC(C)c1ccc(NCC(O)COc2ccc3c(c2)OC2(CCCC2)CC3=O)cc1 (stereo not drawn) | 6.25 (≈ 15.3 µM)
9 | O=C1CC2(CCCC2)Oc2cc(OCC(O)CNc3ccc([N+](=O)[O-])cc3O)ccc21 (stereo not drawn) | 6.25 (≈ 14.6 µM)
10 | COc1ccc(CNCC(O)COc2ccc3c(c2)OC2(CCCC2)CC3=O)cc1 (stereo not drawn) | 12.5 (≈ 30.4 µM)
11 | O=C1CC2(CCCC2)Oc2cc(OCC(O)CN3CCOCC3)ccc21 (stereo not drawn) | > 25
12 | O=C1CC2(CCCCC2)Oc2cc(OCC(O)CNc3ccccc3)ccc21 (stereo not drawn) | 12.5 (≈ 32.8 µM)
13 | Cc1ccccc1NCC(O)COc1ccc2c(c1)OC1(CCCCC1)CC2=O (stereo not drawn) | 6.25 (≈ 15.8 µM)
14 | COc1ccccc1NCC(O)COc1ccc2c(c1)OC1(CCCCC1)CC2=O (stereo not drawn) | 12.5 (≈ 30.4 µM)
15 | COc1ccc(NCC(O)COc2ccc3c(c2)OC2(CCCCC2)CC3=O)cc1 (stereo not drawn) | 12.5 (≈ 30.4 µM)
16 | CC(C)c1ccc(NCC(O)COc2ccc3c(c2)OC2(CCCCC2)CC3=O)cc1 (stereo not drawn) | 6.25 (≈ 14.8 µM)
17 | CC(C)(C)OC(=O)N1CCC2(CC1)CC(=O)c1ccc(OCC(O)CNc3ccccc3)cc1O2 (stereo not drawn) | > 25
18 | Cc1ccccc1NCC(O)COc1ccc2c(c1)OC1(CCN(C(=O)OC(C)(C)C)CC1)CC2=O (stereo not drawn) | 25 (≈ 50.3 µM)
19 | COc1ccccc1NCC(O)COc1ccc2c(c1)OC1(CCN(C(=O)OC(C)(C)C)CC1)CC2=O (stereo not drawn) | 25 (≈ 48.8 µM)
20 | COc1ccc(NCC(O)COc2ccc3c(c2)OC2(CCN(C(=O)OC(C)(C)C)CC2)CC3=O)cc1 (stereo not drawn) | > 25
21 | O=C1CC2(CCCC2)Oc2cc(OCC(O)CNc3ccccc3)ccc21 (stereo not drawn) | 25 (≈ 68 µM)
22 | CC[C@@H](CO)NCCN[C@@H](CC)CO [ETHAMBUTOL] | 1.56 (≈ 7.64 µM)
23 | CO[C@H]1/C=C/O[C@@]2(C)Oc3c(C)c(O)c4c(O)c(c(/C=N/N5CCN(C)CC5)c(O)c4c3C2=O)NC(=O)/C(C)=C\C=C\[C@H](C)[C@H](O)[C@@H](C)[C@@H](O)[C@@H](C)[C@H](OC(C)=O)[C@@H]1C [RIFAMPIN] | 0.2 (≈ 0.243 µM)
